Assay results published in patent US11524968B2, “Heterocyclic compound as a protein kinase inhibitor” (HK inno.N Corporation, priority 2017, dated 2022).

These compounds were tested against JAK1 (Homo sapiens (Human), UniProt P23458) (assay: Analysis of JAK1 activity inhibition ability (ADP-Glo Kinase Assay)). Conditions: JAK1 enzyme, ADP-Glo luminescence, ATP 250 uM, IRS-itide substrate, 30° C. 40 minutes; read-out: IC50.
Type: biochemical
How it was run: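 ADP-Glo luminescence read-out of ADP production, with IC50 taken as the concentration halving JAK1 activity relative to control. Enzyme was incubated 40 min at 30 °C with compound, IRS-itide (40 ng/mL) and ATP (250 uM), concentrations as prepared in pH 7.5 Tris-HCl/MgCl2/BSA/DTT buffer.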

Chain of JAK1 (P23458 whole entry): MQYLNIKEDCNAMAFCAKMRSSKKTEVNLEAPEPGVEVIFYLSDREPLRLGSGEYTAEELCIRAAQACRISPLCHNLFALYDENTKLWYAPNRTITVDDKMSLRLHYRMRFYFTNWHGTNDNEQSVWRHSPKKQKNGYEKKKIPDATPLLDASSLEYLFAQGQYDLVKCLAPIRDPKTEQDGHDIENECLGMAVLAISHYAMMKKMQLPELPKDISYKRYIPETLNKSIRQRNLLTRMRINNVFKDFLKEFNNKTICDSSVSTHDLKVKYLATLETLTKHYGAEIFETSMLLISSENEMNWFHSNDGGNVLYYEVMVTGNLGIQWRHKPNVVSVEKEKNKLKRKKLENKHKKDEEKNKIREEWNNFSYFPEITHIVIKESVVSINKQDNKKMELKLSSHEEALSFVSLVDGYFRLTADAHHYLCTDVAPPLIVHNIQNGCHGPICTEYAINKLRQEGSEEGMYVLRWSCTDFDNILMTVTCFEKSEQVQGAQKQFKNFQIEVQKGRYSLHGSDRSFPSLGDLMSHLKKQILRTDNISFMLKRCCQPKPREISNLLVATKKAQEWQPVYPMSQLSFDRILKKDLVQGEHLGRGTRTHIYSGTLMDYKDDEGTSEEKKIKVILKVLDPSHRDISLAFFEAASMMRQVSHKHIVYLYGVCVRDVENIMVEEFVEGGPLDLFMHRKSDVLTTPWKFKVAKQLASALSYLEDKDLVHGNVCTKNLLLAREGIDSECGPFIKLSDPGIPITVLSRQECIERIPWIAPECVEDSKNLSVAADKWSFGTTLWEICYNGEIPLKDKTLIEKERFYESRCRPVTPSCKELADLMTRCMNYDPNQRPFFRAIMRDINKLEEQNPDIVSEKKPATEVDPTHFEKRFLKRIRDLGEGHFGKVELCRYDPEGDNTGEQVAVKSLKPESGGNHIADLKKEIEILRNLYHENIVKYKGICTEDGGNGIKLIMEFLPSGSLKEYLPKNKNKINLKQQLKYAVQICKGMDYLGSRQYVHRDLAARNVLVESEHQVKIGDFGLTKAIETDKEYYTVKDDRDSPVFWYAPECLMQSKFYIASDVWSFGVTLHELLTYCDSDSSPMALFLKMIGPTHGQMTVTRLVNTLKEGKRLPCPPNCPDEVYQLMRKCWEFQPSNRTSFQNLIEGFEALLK

SMILES | IC50 [nM]
O=C(Nc1cc(C2=CCN(C(=O)C3CC3F)CC2)c2cc[nH]c2n1)C1CC1 (stereo not shown) [Example 274, N-(4-(1-(2-fluorocyclopropane-1-carbonyl)-1,2,3,6-tetrahydropyridin-4-yl)-1H-pyrrolo[2,3-b]pyridin-6-yl)cyclopropanecarboxamide] | < 20
CCS(=O)(=O)Nc1ccc(-c2cc(NC(=O)C3CC3)nc3[nH]ccc23)c(F)c1 [Example 30, N-(4-(4-(ethylsulfonamido)-2-fluorophenyl)-1H-pyrrolo[2,3-b]pyridin-6-yl)cyclopropanecarboxamide] | < 20
CC1CN(C(=O)Cc2cccc(Br)c2)CC=C1c1cc(NC(=O)C2CC2)nc2[nH]ccc12 (stereo not shown) [Example 347, N-(4-(1-(2-(3-bromophenyl)acetyl)-3-methyl-1,2,3,6-tetrahydropyridin-4-yl)-1H-pyrrolo[2,3-b]pyridin-6-yl)cyclopropanecarboxamide] | 20 to 200
O=C(Nc1cc(C2CC3CCC(C2)N3S(=O)(=O)C2CC2)c2cc[nH]c2n1)C1CC1 (stereo not shown) [Example 647, N-(4-(8-(cyclopropylsulfonyl)-8-azabicyclo[3.2.1]octan-3-yl)-1H-pyrrolo[2,3-b]pyridin-6-yl)cyclopropanecarboxamide] | > 200
CC(C)N(C)S(=O)(=O)Nc1ccc(-c2cc(NC(=O)C3CC3)nc3[nH]ccc23)cc1 [Example 222, N-(4-(4-((N-isopropyl-N-methylsulfamoyl)amino)phenyl)-1H-pyrrolo[2,3-b]pyridin-6-yl)cyclopropanecarboxamide] | 20 to 200
CC(C)CS(=O)(=O)Nc1ccc(-c2cc(NC(=O)C3CC3)nc3[nH]ccc23)cc1F [Example 75, N-(4-(3-fluoro-4-((2-methylpropyl)sulfonamido)phenyl)-1H-pyrrolo[2,3-b]pyridin-6-yl)cyclopropanecarboxamide] | < 20
CC(C)CCS(=O)(=O)Nc1ccc(-c2cc(NC(=O)C3CC3)nc3[nH]ccc23)cc1 [Example 45, N-(4-(4-((3-methylbutyl)sulfonamido)phenyl)-1H-pyrrolo[2,3-b]pyridin-6-yl)cyclopropanecarboxamide] | < 20
O=C(Nc1cc(C2=CCN(C(=O)C3CC3(F)F)CC2)c2cc[nH]c2n1)C1CC1 (stereo not shown) [Example 263, N-(4-(1-(2,2-difluorocyclopropane-1-carbonyl)-1,2,3,6-tetrahydropyridin-4-yl)-1H-pyrrolo[2,3-b]pyridin-6-yl)cyclopropanecarboxamide] | < 20
N#CCC1(N2CC=C(c3cc(NC(=O)C4CC4)nc4[nH]ccc34)CC2)CN(S(=O)(=O)c2ccc(F)cc2)C1 [Example 623, N-(4-(1-(3-(cyanomethyl)-1-((4-fluorophenyl)sulfonyl)azetidin-3-yl)-1,2,3,6-tetrahydropyridin-4-yl)-1H-pyrrolo[2,3-b]pyridin-6-yl)cyclopropanecarboxamide] | 20 to 200

Further lines, results first:

IC50 [nM] | SMILES
< 20 | O=C(Nc1cc(-c2ccc(NS(=O)(=O)N3CCCC3)cc2)c2cc[nH]c2n1)C1CC1 [Example 218, N-(4-(4-(pyrrolidine-1-sulfonamido)phenyl)-1H-pyrrolo[2,3-b]pyridin-6-yl)cyclopropanecarboxamide]
< 20 | CCS(=O)(=O)Nc1ccc(-c2cc(NC(=O)C3CC3)nc3[nH]ccc23)cc1 [Example 4, N-(4-(4-(ethylsulfonamido)phenyl)-1H-pyrrolo[2,3-b]pyridin-6-yl)cyclopropanecarboxamide]
20 to 200 | CCNC(=S)Nc1ccc(-c2cc(NC(=O)C3CC3)nc3[nH]ccc23)cc1 [Example 462, N-(4-(4-(3-ethylthioureido)phenyl)-1H-pyrrolo[2,3-b]pyridin-6-yl)cyclopropanecarboxamide]
> 200 | C[C@H]1CC(Nc2ccc(-c3cc(NC(=O)C4CC4)nc4[nH]ccc34)cc2)CCN1C(=O)c1ccnc(F)c1 (stereo partly drawn) [Example 503, N-(4-(4-(((2S)-1-(2-fluoroisonicotinoyl)-2-methylpiperidin-4-yl)amino)phenyl)-1H-pyrrolo[2,3-b]pyridin-6-yl)cyclopropanecarboxamide]
